Where two headings read alike, the source gives them in different places. Marks after values point to notes of the source that are not given here.
Legend:
[1] = rat, in vivo
[2] = test system: motor balance and coordination; details: both, mouse, in vivo
Protocol: Motor balance and coordination were tested using a modified beam walking method. Mice were put on a smooth beam tilted at an angle of 70 degree. Mice passed the test by standing on the beam for 0.5 minute without falling off. All the mice were pre-screened before the studies, and a total of 110 mice were selected by passing the beam test in 3 consecutive tries. The selected mice were divided into 11 groups with 10 mice in each group (half male and half female). At certain time points after drug administration, mice were tested on the beam for 3 consecutive times. A mouse was counted as failing to the test if it fell off the beam for 2 or more times.
The dose volume was 0.2 mL/10 gram and infusion rate was 0.2 mL/10 seconds. Chlorpromazine was used as the positive control.

[3] = test system: Purkinje cells; details: dog, in vivo, 200 mg/kg
Protocol: Male and female Beagle dogs were kept in laboratory conditions for 1 week to observe general health conditions. […] Animals were treated at dose of I.V. 200 mg/kg for ornidazole enantiomers, or 10 mL/kg for vehicle control for 2 weeks, then sacrificed for anatomical and pathological examinations.
Quantitative data were analyzed by group test and qualitative data by simplified direct probability method. A 10×10 area under low magnification was used to count cerebellar Purkinje cells.

[4] = test system: isoniazid-induced convulsion; assay: Anticonvulsant effects on isoniazid-induced convulsion in mice; assay type: in vivo; details: Mean ± SD, n=10
Protocol: Mice are randomized into 4 treatment groups (n=10 with half male and half female): dextro- or levo-ornidazole (dosage 40, 80, 160 mg/kg), vehicle control group (15% propylene glycol in 0.9% sodium chloride, 20 mL/kg) and the positive control group. Animals are treated with known convulsion-inducing agents, followed by the drug or vehicle control given intravenously. The dose volume is 20 mL/kg with an infusion rate of 0.2 mL/10 seconds. The anticonvulsant effects are observed and recorded (see Tables 2-6).

[5] = test system: plasma protein
[6] = Phase II clinical trial, intravenous, adverse events; assay type: in vivo, human; details: human phase II, I.V.
Protocol: A double-blinded randomized controlled trial was carried out to compare the adverse events between the I.V. levo-ornidazole and racemate treatment groups. […] The high rate of adverse events observed from the treatment by the racemic drug caused patient treatment non-compliant, which could be dangerous for life-threatening infections.

[7] = Phase II clinical trial, oral tablets, departments of obstetrics/gynecology, adverse events; assay type: in vivo, human; details: human phase II, oral, obstetrics/gynecology
Protocol: (§1) Double-blinded randomized controlled trials were carried out to compare the adverse events of oral levo-ornidazole with racemate treatment groups. Two separate studies were conducted for patients with infections from either department of stomatology or obstetrics/gynecology.

[8] = Phase II clinical trial, oral tablets, departments of stomatology, adverse events; assay type: in vivo, human; details: human phase II, oral, stomatology
Protocol: as §1

Cc1ncc([N+](=O)[O-])n1C[C@@H](O)CCl [D-ornidazole, R-(+)-ornidazole]
Distribution in different region of brain, levo- vs dextro-ornidazole [1]: Similar
Number of Animals Fall Off ([2]; 40 mg/kg, 0.5 h): 0
Number of Animals Fall Off ([2]; 40 mg/kg, 1 h): 1
Number of Animals Fall Off ([2]; 40 mg/kg, 2 h): 2
Number of Animals Fall Off ([2]; 40 mg/kg, 3 h): 3
Number of Animals Fall Off ([2]; 40 mg/kg, 4 h): 0
Number of Animals Fall Off ([2]; 80 mg/kg, 0.5 h): 3
Number of Animals Fall Off ([2]; 80 mg/kg, 1 h): 3
Number of Animals Fall Off ([2]; 80 mg/kg, 2 h): 2
Number of Animals Fall Off ([2]; 80 mg/kg, 3 h): 1
Number of Animals Fall Off ([2]; 80 mg/kg, 4 h): 0
Number of Animals Fall Off ([2]; 160 mg/kg, 0.5 h): 10##
Number of Animals Fall Off ([2]; 160 mg/kg, 1 h): 10##
Number of Animals Fall Off ([2]; 160 mg/kg, 2 h): 10##
Number of Animals Fall Off ([2]; 160 mg/kg, 3 h): 10##
Number of Animals Fall Off ([2]; 160 mg/kg, 4 h): 9##
Purkinje cell morphology [3]: Purkinje cell denaturing and morphology change
Convulsion Latency ([4]; 40 mg/kg i.v.): 43.2 ± 5.4 min
Time to Death ([4]; 40 mg/kg i.v.): 53.6 ± 7.2 min
Convulsion Latency ([4]; 80 mg/kg i.v.): 46.1 ± 2.2 min
Time to Death ([4]; 80 mg/kg i.v.): 57.0 ± 7.3 min
Convulsion Latency ([4]; 160 mg/kg i.v.): 48.3 ± 14.1 min
Time to Death ([4]; 160 mg/kg i.v.): 81.5 ± 15.8 min
Plasma protein binding, levo- vs dextro-ornidazole [5]: Similar

Cc1ncc([N+](=O)[O-])n1CC(O)CCl (racemic) [Racemic ornidazole, 1-(3-Chloro-2-hydroxypropyl)-2-methyl-5-nitroimidazole]
Adverse events reported (total) [6]: 42
Appetite drop, # of Patients with AE [6]: 0
Appetite drop, Incidence (%) [6]: 0.00%
Dizziness, # of Patients with AE [6]: 5
Dizziness, Incidence (%) [6]: 3.60%
Dry mouth, # of Patients with AE [6]: 2
Dry mouth, Incidence (%) [6]: 1.44%
Headache, # of Patients with AE [6]: 1
Headache, Incidence (%) [6]: 0.72%
Hypersomnia, # of Patients with AE [6]: 10
Hypersomnia, Incidence (%) [6]: 7.19^## %
Hypodynamia, # of Patients with AE [6]: 1
Hypodynamia, Incidence (%) [6]: 0.72%
Nausea, # of Patients with AE [6]: 1
Nausea, Incidence (%) [6]: 0.72%
Stomach discomfort, # of Patients with AE [6]: 1
Stomach discomfort, Incidence (%) [6]: 0.72%
Total incidence rate of adverse events [6]: 21.58%
Vertigo, # of Patients with AE [6]: 17
Vertigo, Incidence (%) [6]: 12.23^## %
Vomiting, # of Patients with AE [6]: 1
Vomiting, Incidence (%) [6]: 0.72%
WBC decline, # of Patients with AE [6]: 3
WBC decline, Incidence (%) [6]: 2.16%
Patients with adverse events (total) ([6]; out of 136 (levo) / 139 (racemate) patients): 30 patients
Abdominal pain, # of Patients with AE [7]: 1
Abdominal pain, Incidence (%) [7]: 0.70%
Appetite drop, # of Patients with AE [7]: 2
Appetite drop, Incidence (%) [7]: 1.41%
Bitter taste, # of Patients with AE [7]: 1
Bitter taste, Incidence (%) [7]: 0.70%
Bloating, # of Patients with AE [7]: 3
Bloating, Incidence (%) [7]: 2.11%
Blurred vision, # of Patients with AE [7]: 1
Blurred vision, Incidence (%) [7]: 0.70%
Breast tenderness, # of Patients with AE [7]: 1
Breast tenderness, Incidence (%) [7]: 0.70%
Chest tightness, # of Patients with AE [7]: 2
Chest tightness, Incidence (%) [7]: 1.41%
Dazzle, # of Patients with AE [7]: 1
Dazzle, Incidence (%) [7]: 0.70%
Diarrhea, # of Patients with AE [7]: 1
Diarrhea, Incidence (%) [7]: 0.70%
Dizziness, # of Patients with AE [7]: 4
Dizziness, Incidence (%) [7]: 2.82%
Dry mouth, # of Patients with AE [7]: 1
Dry mouth, Incidence (%) [7]: 0.70%
Headache, # of Patients with AE [7]: 1
Headache, Incidence (%) [7]: 0.70%
Hypersomnia, # of Patients with AE [7]: 8
Hypersomnia, Incidence (%) [7]: 5.63%
Hypodynamia, # of Patients with AE [7]: 2
Hypodynamia, Incidence (%) [7]: 1.41%
Nausea, # of Patients with AE [7]: 7
Nausea, Incidence (%) [7]: 4.93%
Oral malodor, # of Patients with AE [7]: 0
Oral malodor, Incidence (%) [7]: 0.00%
Rash, # of Patients with AE [7]: 0
Rash, Incidence (%) [7]: 0.00%
Stomach ache, # of Patients with AE [7]: 0
Stomach ache, Incidence (%) [7]: 0.00%
Stomach discomfort, # of Patients with AE [7]: 4
Stomach discomfort, Incidence (%) [7]: 2.82%
Total incidence rate of adverse events [7]: 19.72%
Vertigo, # of Patients with AE [7]: 8
Vertigo, Incidence (%) [7]: 5.63%
Vomiting, # of Patients with AE [7]: 1
Vomiting, Incidence (%) [7]: 0.70%
Patients with adverse events (total) ([7]; out of 143 (levo) / 142 (racemate) patients): 28 patients
Bloating, # of Patients with AE [8]: 1
Bloating, Incidence (%) [8]: 0.71%
Constipation, # of Patients with AE [8]: 0
Constipation, Incidence (%) [8]: 0.00%
Drowsy, # of Patients with AE [8]: 3
Drowsy, Incidence (%) [8]: 2.13%
Dry mouth, # of Patients with AE [8]: 1
Dry mouth, Incidence (%) [8]: 0.71%
Headache, # of Patients with AE [8]: 1
Headache, Incidence (%) [8]: 0.71%
Hypersomnia, # of Patients with AE [8]: 6
Hypersomnia, Incidence (%) [8]: 4.26%
Hypodynamia, # of Patients with AE [8]: 1
Hypodynamia, Incidence (%) [8]: 0.71%
Loss of appetite, # of Patients with AE [8]: 1
Loss of appetite, Incidence (%) [8]: 0.71%
Nausea, # of Patients with AE [8]: 4
Nausea, Incidence (%) [8]: 2.84%
Palpitation, # of Patients with AE [8]: 1
Palpitation, Incidence (%) [8]: 0.71%
Pruritus, # of Patients with AE [8]: 1
Pruritus, Incidence (%) [8]: 0.71%
Rash, # of Patients with AE [8]: 2
Rash, Incidence (%) [8]: 1.42%
Sourregurgitation, # of Patients with AE [8]: 1
Sourregurgitation, Incidence (%) [8]: 0.71%
Stomach discomfort, # of Patients with AE [8]: 7
Stomach discomfort, Incidence (%) [8]: 4.96%
Stupor, # of Patients with AE [8]: 1
Stupor, Incidence (%) [8]: 0.71%
Total incidence rate of adverse events [8]: 17.73%
Vertigo, # of Patients with AE [8]: 2
Vertigo, Incidence (%) [8]: 1.42%
Vomiting, # of Patients with AE [8]: 1
Vomiting, Incidence (%) [8]: 0.71%
Patients with adverse events (total) ([8]; out of 139 (levo) / 141 (racemate) patients): 25 patients

From patent US20130202698A1 (NANJING SANHOME PHARMACEUTICAL CO., LTD., priority 2005, published 2013)
